{
  "source": "patent US20130005650A1",
  "about": "(priority 2011, published 2013)",
  "key": {"microorganisms": {"tested_on": "microorganisms", "details": "generally; cited from earlier work"}, "[1]": {"details": "cited from earlier work"}, "[2]": {"target": "yeast prion protein Sup-NM (Saccharomyces cerevisiae, UniProt P05453)", "sequence (P05453 1-254 limits assumed)": "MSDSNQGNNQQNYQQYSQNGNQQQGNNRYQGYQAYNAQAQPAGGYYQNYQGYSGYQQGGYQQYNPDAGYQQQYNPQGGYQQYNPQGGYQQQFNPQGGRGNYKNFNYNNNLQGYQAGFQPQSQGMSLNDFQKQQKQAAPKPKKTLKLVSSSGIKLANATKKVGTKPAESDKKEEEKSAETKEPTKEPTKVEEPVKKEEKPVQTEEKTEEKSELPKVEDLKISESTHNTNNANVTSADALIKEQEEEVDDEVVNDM", "assay_type": "biochemical", "details": "thioflavin T fluorescence, 25° C."}, "[3]": {"tested_on": "PSI^+ induction in yeast cells", "experiment": "PSI^+ induction assay in yeast", "assay_type": "cell-based", "details": "FIG. 2; 24 h, 50 μM copper sulfate, 30° C."}, "amyloid fibrils": {"target": "T1, amyloid fibrils (Homo sapiens, UniProt P05067)", "T1 construct": "effective to reduce or reverse amyloid fibril formation (Aβ42 fibrillogenesis) in vitro", "T1 sequence (P05067 672-713 limits assumed)": "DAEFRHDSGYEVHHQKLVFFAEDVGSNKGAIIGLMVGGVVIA", "experiment": "Incubation of acriflavine with amyloid fibrils (fibril dissociation)", "assay_type": "biochemical", "details": "in vitro"}, "[4]": {"details": "human; cited from earlier work"}, "[5]": {"target": "T2, Aβ42 fibrillogenesis (amyloid peptide) (Homo sapiens, UniProt P05067)", "T2 construct": "purchased Invitrogen (Camarillo, Calif.)", "T2 sequence (P05067 672-713 limits assumed)": "as above", "experiment": "Congo Red spectrophotometric assay of amyloid fibrillogenesis", "assay_type": "biochemical", "source_text": "In addition, the inhibition of the oligomerization of amyloid peptide (inhibition of amyloid fibrillogenesis) can be estimated by the method described by Klunk, et al. using Congo Red (Klunk, W. E., Jacob, R. F., Mason, R. P. (1999) “Quantifying amyloid β-peptide aggregation using the congo red-Aβ spectrophotometric assay” Anal. Biochem. 266:66-76).\nThe inhibition of the oligomerization of amyloid peptide was estimated by the method described by Klunk, et al. using Congo Red (Klunk, W. E., Jacob, R. F., Mason, R. P. (1999) “Quantifying amyloid β-peptide aggregation using the congo red-Aβ spectrophotometric assay” Anal. Biochem. 266, 66-76). Briefly, amyloid peptides were prepared in 40 μM in Tris-Acetate (40 mM:8 mM) buffer. Acriflavine HCl to be tested for inhibition of fibrillogenesis was dissolved in phosphate buffered saline, and then diluted 100 fold into Tris-Acetate buffer. Aliquots of 100 μl of amyloid peptide were incubated with acriflavine at room temperature for 5 days before measuring the absorbance. BSA was included in the buffer as a negative control. […] The absorbance of Congo Red at 541 nm was read using a Perkin-Elmer Victor3 1420 Multilabel Counter. The inhibition of oligomerization was calculated using the following formula: Inhibition=(Abs541 of sample-Abs541 of control)/(Abs541 of Amyloid peptide-Abs541 of BSA)."}},
  "data": [
    {"substance": "Acriflavine neutral", "values": [
      {"measurement": "concentration inhibiting the growth of microorganisms", "setting": "microorganisms", "result": "10^−4 to 10^−5 M"},
      {"measurement": "toxicity", "setting": "[1]; clinically used dosage range", "result": "low toxicity"},
      {"measurement": "effect on hematopoietic system and liver", "setting": "[1]; repetitive administrations for a prolonged period", "result": "does not suppress the hematopoietic system, nor damage the liver"}
    ]},
    {"substance": "acriflavine", "values": [
      {"measurement": "inhibition of amyloid formation of yeast prion protein Sup-NM", "setting": "[2]", "result": "inhibit in a dose-dependent manner"},
      {"measurement": "inhibition of PSI^+ induction in yeast cells", "setting": "[3]", "result": "concentration dependent inhibition"},
      {"measurement": "amount of amyloid peptide monomer after incubation with amyloid fibrils", "setting": "amyloid fibrils", "result": "increase in the amount of amyloid peptide monomer"},
      {"measurement": "crossing of the blood-brain barrier", "setting": "[4]", "result": "able to cross the blood-brain barrier"}
    ]},
    {"substance": "Acriflavine HCl", "values": [
      {"measurement": "inhibition of amyloid fibrillogenesis", "setting": "[5]; FIG. 1, Aβ42", "result": "concentration-dependent inhibition"},
      {"measurement": "IC50 for inhibition of fibrillogenesis", "setting": "[5]; amyloid peptide 40 μM, room temperature, 5 days, Congo Red Abs 541 nm", "result": "approximately 1.7 μg/mL"}
    ]}
  ]
}
